Measurements as given in the supplement of paper PMC10307832.

Experiments:
Assay in all cases: relative viability (nuclei count vs DMSO), 5 days (fraction); higher = more cells survive
HARA = tested on: HARA
How it was run: (§1)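 Lung cancer cell lines were seeded in 1536-well plates and dosed by pin tool the next day, with either a single drug or a fixed anchor-drug dose combined with five library-drug doses (not always all listed) spaced in √10 steps. Five days later, one step fixed the cells and stained their nuclei (final 0.05% Triton X-100, 1% formaldehyde, 1 ug/ml Hoechst), and nuclei were counted on 4× images. Relative viability is the nuclei count in treated wells divided by the count in vehicle wells, and each value is the median of duplicate plates.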

NCI-H2126 = tested on: NCI-H2126
How it was run: as §1

LCLC-97TM1 = tested on: LCLC-97TM1
How it was run: as §1

HCC-827 = tested on: HCC-827
How it was run: as §1

NCI-H1792 = tested on: NCI-H1792
How it was run: as §1

NCI-H661 = tested on: NCI-H661
How it was run: as §1

NCI-H1944 = tested on: NCI-H1944
How it was run: as §1

NCI-H23 = tested on: NCI-H23
How it was run: as §1

SK-LU-1 = tested on: SK-LU-1
How it was run: as §1

LC-2-ad = tested on: LC-2-ad
How it was run: as §1

EMC-BAC-2 = tested on: EMC-BAC-2
How it was run: as §1

NCI-H1437 = tested on: NCI-H1437
How it was run: as §1

EKVX = tested on: EKVX
How it was run: as §1

ChaGo-K-1 = tested on: ChaGo-K-1
How it was run: as §1

NCI-H1915 = tested on: NCI-H1915
How it was run: as §1

NCI-H460 = tested on: NCI-H460
How it was run: as §1

LU99A = tested on: LU99A
How it was run: as §1

HCC-15 = tested on: HCC-15
How it was run: as §1

NCI-H322M = tested on: NCI-H322M
How it was run: as §1

NCI-H441 = tested on: NCI-H441
How it was run: as §1

PC-3 [JPC-3] = tested on: PC-3 [JPC-3]
How it was run: as §1

H3255 = tested on: H3255
How it was run: as §1

NCI-H1793 = tested on: NCI-H1793
How it was run: as §1

Q: How did the relative viability (HARA; first compound 0.08 µM) turn out when `Cc1cnc(-c2cnc(NCCNc3ccc(C#N)cn3)nc2-c2ccc(Cl)cc2Cl)[nH]1` + O=C(c1cc(Cc2n[nH]c(=O)c3ccccc23)ccc1F)N1CCN(C(=O)C2CC2)CC1 [Olaparib] (partner 8 µM) was run?
A: The relative viability was 0.509.

Q: What about the relative viability (HARA; first compound 0.253 µM) of the same compound?
A: Its relative viability is 0.72.

Q: And the relative viability (HARA; first compound 0.8 µM)?
A: The relative viability was 0.764.

Q: What about the relative viability (HARA; first compound 2.53 µM) of the same compound?
A: Its relative viability is 0.894.

Q: What about the relative viability (NCI-H2126; first compound 0.08 µM) of the same compound?
A: Its relative viability is 0.922.

Q: What about the relative viability (NCI-H2126; first compound 0.253 µM) of the same compound?
A: Its relative viability is 0.908.

Q: And the relative viability (NCI-H2126; first compound 0.8 µM)?
A: The relative viability was 0.89.

Q: And the relative viability (NCI-H2126; first compound 2.53 µM)?
A: Its relative viability is 0.898.

Q: And the relative viability (LCLC-97TM1; first compound 0.08 µM)?
A: Its relative viability is 0.379.

Q: And the relative viability (LCLC-97TM1; first compound 0.253 µM)?
A: The relative viability was 0.36.

Q: And the relative viability (LCLC-97TM1; first compound 0.8 µM)?
A: The relative viability was 0.417.

Q: What about the relative viability (LCLC-97TM1; first compound 2.53 µM) of the same compound?
A: Its relative viability is 0.316.

Q: What about the relative viability (HCC-827; first compound 0.08 µM) of the same compound?
A: The relative viability was 0.582.

Q: And the relative viability (HCC-827; first compound 0.253 µM)?
A: The relative viability was 0.514.

Q: What about the relative viability (HCC-827; first compound 0.8 µM) of the same compound?
A: Its relative viability is 0.572.

Q: And the relative viability (HCC-827; first compound 2.53 µM)?
A: Its relative viability is 0.561.

Q: What about the relative viability (NCI-H1792; first compound 0.08 µM) of the same compound?
A: The relative viability was 0.377.

Q: And the relative viability (NCI-H1792; first compound 0.253 µM)?
A: Its relative viability is 0.357.

Q: And the relative viability (NCI-H1792; first compound 0.8 µM)?
A: Its relative viability is 0.345.

Q: What about the relative viability (NCI-H1792; first compound 2.53 µM) of the same compound?
A: Its relative viability is 0.397.

Q: What about the relative viability (NCI-H661; first compound 0.08 µM) of the same compound?
A: The relative viability was 0.736.

Q: What about the relative viability (NCI-H661; first compound 0.253 µM) of the same compound?
A: Its relative viability is 0.759.

Q: What about the relative viability (NCI-H661; first compound 0.8 µM) of the same compound?
A: Its relative viability is 0.7.

Q: What about the relative viability (NCI-H661; first compound 2.53 µM) of the same compound?
A: Its relative viability is 0.654.

Q: What about the relative viability (NCI-H1944; first compound 0.08 µM) of the same compound?
A: The relative viability was 0.446.

Q: What about the relative viability (NCI-H1944; first compound 0.8 µM) of the same compound?
A: The relative viability was 0.42.

Q: And the relative viability (NCI-H1944; first compound 2.53 µM)?
A: The relative viability was 0.413.

Q: What about the relative viability (NCI-H23; first compound 0.08 µM) of the same compound?
A: The relative viability was 0.316.

Q: And the relative viability (NCI-H23; first compound 0.253 µM)?
A: The relative viability was 0.297.

Q: What about the relative viability (NCI-H23; first compound 0.8 µM) of the same compound?
A: Its relative viability is 0.303.

Q: What about the relative viability (NCI-H23; first compound 2.53 µM) of the same compound?
A: The relative viability was 0.367.

Q: What about the relative viability (SK-LU-1; first compound 0.08 µM) of the same compound?
A: Its relative viability is 0.455.

Q: And the relative viability (SK-LU-1; first compound 0.253 µM)?
A: The relative viability was 0.479.

Q: And the relative viability (SK-LU-1; first compound 0.8 µM)?
A: The relative viability was 0.463.

Q: What about the relative viability (SK-LU-1; first compound 2.53 µM) of the same compound?
A: Its relative viability is 0.472.

Q: And the relative viability (LC-2-ad; first compound 0.08 µM)?
A: Its relative viability is 0.657.

Q: And the relative viability (LC-2-ad; first compound 0.8 µM)?
A: Its relative viability is 0.73.

Q: And the relative viability (LC-2-ad; first compound 2.53 µM)?
A: Its relative viability is 0.645.

Q: What about the relative viability (EMC-BAC-2; first compound 0.08 µM) of the same compound?
A: The relative viability was 0.498.

Q: What about the relative viability (EMC-BAC-2; first compound 0.253 µM) of the same compound?
A: Its relative viability is 0.466.

Q: And the relative viability (EMC-BAC-2; first compound 0.8 µM)?
A: The relative viability was 0.504.

Q: And the relative viability (EMC-BAC-2; first compound 2.53 µM)?
A: The relative viability was 0.397.

Q: And the relative viability (NCI-H1437; first compound 0.08 µM)?
A: The relative viability was 0.605.

Q: What about the relative viability (NCI-H1437; first compound 0.253 µM) of the same compound?
A: Its relative viability is 0.606.

Q: And the relative viability (NCI-H1437; first compound 0.8 µM)?
A: Its relative viability is 0.596.

Q: What about the relative viability (NCI-H1437; first compound 2.53 µM) of the same compound?
A: Its relative viability is 0.598.

Q: And the relative viability (EKVX; first compound 0.08 µM)?
A: The relative viability was 0.939.

Q: What about the relative viability (EKVX; first compound 0.253 µM) of the same compound?
A: Its relative viability is 0.814.

Q: What about the relative viability (EKVX; first compound 0.8 µM) of the same compound?
A: The relative viability was 0.715.

Q: And the relative viability (EKVX; first compound 2.53 µM)?
A: Its relative viability is 0.85.

Q: What about the relative viability (ChaGo-K-1; first compound 0.08 µM) of the same compound?
A: Its relative viability is 0.406.

Q: And the relative viability (ChaGo-K-1; first compound 0.253 µM)?
A: The relative viability was 0.361.

Q: And the relative viability (ChaGo-K-1; first compound 0.8 µM)?
A: The relative viability was 0.362.

Q: And the relative viability (ChaGo-K-1; first compound 2.53 µM)?
A: The relative viability was 0.322.

Q: And the relative viability (NCI-H1915; first compound 0.08 µM)?
A: Its relative viability is 0.253.

Q: And the relative viability (NCI-H1915; first compound 0.8 µM)?
A: Its relative viability is 0.264.

Q: And the relative viability (NCI-H1915; first compound 2.53 µM)?
A: The relative viability was 0.239.

Q: What about the relative viability (NCI-H460; first compound 0.08 µM) of the same compound?
A: The relative viability was 0.323.

Q: And the relative viability (NCI-H460; first compound 0.8 µM)?
A: Its relative viability is 0.342.

Q: What about the relative viability (NCI-H460; first compound 2.53 µM) of the same compound?
A: The relative viability was 0.402.

Q: And the relative viability (LU99A; first compound 0.08 µM)?
A: The relative viability was 0.254.

Q: And the relative viability (LU99A; first compound 0.253 µM)?
A: Its relative viability is 0.256.

Q: What about the relative viability (LU99A; first compound 0.8 µM) of the same compound?
A: The relative viability was 0.231.

Q: What about the relative viability (LU99A; first compound 2.53 µM) of the same compound?
A: The relative viability was 0.253.

Q: What about the relative viability (HCC-15; first compound 0.08 µM) of the same compound?
A: The relative viability was 0.77.

Q: What about the relative viability (HCC-15; first compound 0.253 µM) of the same compound?
A: Its relative viability is 0.653.

Q: And the relative viability (HCC-15; first compound 0.8 µM)?
A: The relative viability was 0.721.

Q: And the relative viability (HCC-15; first compound 2.53 µM)?
A: Its relative viability is 0.737.

Q: What about the relative viability (NCI-H322M; first compound 0.08 µM) of the same compound?
A: The relative viability was 0.768.

Q: And the relative viability (NCI-H322M; first compound 0.253 µM)?
A: Its relative viability is 0.733.

Q: And the relative viability (NCI-H322M; first compound 0.8 µM)?
A: Its relative viability is 0.638.

Q: What about the relative viability (NCI-H322M; first compound 2.53 µM) of the same compound?
A: The relative viability was 0.637.

Q: What about the relative viability (NCI-H441; first compound 0.08 µM) of the same compound?
A: Its relative viability is 0.568.

Q: What about the relative viability (NCI-H441; first compound 0.8 µM) of the same compound?
A: The relative viability was 0.536.

Q: And the relative viability (NCI-H441; first compound 2.53 µM)?
A: Its relative viability is 0.387.

Q: And the relative viability (PC-3 [JPC-3]; first compound 0.08 µM)?
A: Its relative viability is 1.1.

Q: And the relative viability (PC-3 [JPC-3]; first compound 0.253 µM)?
A: Its relative viability is 1.08.

Q: And the relative viability (PC-3 [JPC-3]; first compound 0.8 µM)?
A: The relative viability was 1.09.

Q: And the relative viability (PC-3 [JPC-3]; first compound 2.53 µM)?
A: The relative viability was 1.04.

Q: What about the relative viability (H3255; first compound 0.08 µM) of the same compound?
A: Its relative viability is 0.585.

Q: What about the relative viability (H3255; first compound 0.253 µM) of the same compound?
A: Its relative viability is 0.543.

Q: What about the relative viability (H3255; first compound 0.8 µM) of the same compound?
A: Its relative viability is 0.542.

Q: What about the relative viability (H3255; first compound 2.53 µM) of the same compound?
A: Its relative viability is 0.563.

Q: What about the relative viability (NCI-H1793; first compound 0.08 µM) of the same compound?
A: The relative viability was 1.01.

Q: And the relative viability (NCI-H1793; first compound 0.253 µM)?
A: The relative viability was 0.755.

Q: And the relative viability (NCI-H1793; first compound 0.8 µM)?
A: The relative viability was 0.957.

Q: What about the relative viability (NCI-H1793; first compound 2.53 µM) of the same compound?
A: The relative viability was 0.867.
